Read-outs that look alike come from different tables or passages of the source. Marks after values point to notes of the source that are not given here.
Legend:
[1] = ref PharmaPendium, cited from earlier work
[2] = system: hiPSC-derived neurons co-cultured with human primary astrocytes in 2D; experiment: Ca2+ transient oscillation assay (FDSS), 2D co-culture; type: cell-based; details: for effect on peak number / Ca2+ neuronal oscillations, in words: 2D format; for activation at 11.11 µM / activation at 33.33 µM / activation at 100 µM / activation at 300 µM: Homo sapiens, 1 h; for activation at 11.11 µM / activation at 33.33 µM / activation at 100 µM / activation at 300 µM / Area under the curve - 2D Mean / Peak Number—2D Mean / Peak amplitude - 2D Mean / Peak width - 2D Mean / Peak-to-peak interval - 2D Mean: 60 min
From the text: (§1) In this study, we used cryopreserved excitatory neurons that were differentiated from human induced pluripotent stem cells (hiPSCs; Cat #: EX-SeV-CW50065) (Elixirgen Scientific, Inc., Baltimore, MD, USA). The hiPSCs used, namely, CW50065 were derived from a healthy person and distributed by the California Institute of Regenerative Medicine Human Induced Pluripotent Stem Cell Repository. Human iPSC-derived excitatory neurons were differentiated from CW50065 using a proprietary cocktail of differentiation-inducing factors called Quick-Neuron™ EX-SeV (Batch number: EX-SeV-CW50065-L; Elixirgen Scientific, Inc.), cryopreserved 3 days after differentiation induction and distributed. Human iPSC-derived excitatory neurons were recovered from cryopreservation and maintained essentially as instructed by the manufacturer.
(§2) Cryopreserved human primary astrocytes (#N7805100, Thermo Fisher Scientific, Waltham, MA, USA) were recovered as instructed by the manufacturer and seeded in a 10 cm dish at the density of 2,000,000 cells. The culture was maintained using the Human Astrocytes Kit (#N7805200, Thermo Fisher Scientific) for 12 days. Half of the culture medium was replaced with fresh medium every 2–3 days during the culture period. These astrocytes were harvested using StemPro™ Accutase™ Cell Dissociation Reagent (#A1110501, Thermo Fisher Scientific) when they reached confluency. These cells were cryopreserved in STEM-CELLBANKER® GMP grade (ZENOGEN PHARMA, Kohriyama, Fukushima Japan) at the density of 2,000,000 cells per vial as working stocks for co-culture with neurons in 2D and 3D conditions described below. After a working stock was recovered, astrocytes were directly mixed with hiPSC-derived neurons for plating without further expansion.
Live neurons (hiPSC neurons) and human primary astrocytes were recovered from cryopreservation as described above and seeded in each well of 384-well plates at the density of 10,000 cells (HiPSC-cortical neurons) and human primary astrocytes at 2500 cells (ratio 4:1). These co-cultures were maintained under the medium conditions recommended by the manufacturer, namely Medium N(G2P), to complete the differentiation of excitatory neurons for the first week. […] Half of the culture medium was replaced with fresh medium every 3–4 days during the culture period.
After the incubation, the culture medium containing Cal-520 was replaced with 50 μL of HBSS supplemented with 0.1 mM MgCl2, 2 mM CaCl2, 10 mM HEPES, and 10 mM glucose and incubated at 37 ℃ for 15 min.
(§3) Prior to the fluorescence measurements, all wells to be measured were treated with 0.04% dimethyl sulfoxide (DMSO) to stabilize the oscillation signal. The first recording started 10 min after the addition of DMSO for each plate for 20 min. The effects of the test compound were recorded again starting 60 min after the administration of compounds, for 20 min.
Twenty-five compounds (Table 1) were first dissolved in either DMSO (most compounds) or distilled water depending on the compound, and further diluted with PBS to produce stock solutions concentrated 10-fold. […] The final concentration of DMSO was adjusted to 0.1%. Changes in the fluorescence intensity (FI) produced by Ca^2+ flux were measured at 37 °C for all wells of a 384-well plate simultaneously using the FDSS/µCell system (#C13299, Hamamatsu Photonics, Hamamatsu, Shizuoka, Japan). The excitation and the emission wavelengths were 470 nm and 540 nm, respectively. The recording duration was 20 min with a sampling frequency of 2 Hz for cells cultured under 2D conditions and 10 Hz for cells cultured under 3D conditions.

[3] = system: hiPSC-derived neurons co-cultured with human primary astrocytes in 3D; experiment: Ca2+ transient oscillation assay (FDSS), 3D spheroids; type: cell-based; details: for Area under the curve - 3D Mean / Peak Number—3D Mean / Peak amplitude - 3D Mean / Peak width - 3D Mean / Peak-to-peak interval - 3D Mean: 60 min
From the text: as §1, §2
We used U-shaped-bottom 96-well plates (#174925, Thermo Fisher Scientific) without any prior coating to make a spheroid in each well. Neurons and astrocytes were seeded and maintained as described for 2D cultures, except for the following modifications. First, neurons and astrocytes were seeded in each well of the 96-well plates at the density of 8000 hiPSC neurons with 8000 human primary astrocytes (8000)/well (ratio 1:1). Second, when the differentiation of excitatory neurons was completed one week after seeding, cells were fed with BrainPhys^TM Neuronal Medium (#05793, […] Technologies, Vancouver, BC, Canada) supplemented with 2% SM1 Neuronal Supplement, 1% N2 Supplement-A, and 10% Neuron culture medium for 5 weeks.
Cells maintained as spheroids (3D) in the U-shaped-bottom 96-well plates were transferred into 384-well spheroid plates (#4516, Merck, Corning, NY, USA) with 25 µL of the culture medium. A Ca^2+-indicating dye solution including […] was prepared using the EarlyTox™ Cardiotoxicity Kit (#R8211, Molecular Devices, LLC, San Jose, CA, USA) according to the manufacturer. Then, the same volume of the dye solution was dispensed into each well.
as §3
Twenty-five compounds (Table 1) were first dissolved in either DMSO (most compounds) or distilled water depending on the compound, and further diluted with PBS to produce stock solutions concentrated 10-fold. Then, 5 μL of each compound solution was injected into each well using an automatic pipetting robot (#4505, ASSIST PLUS pipetting robot, Integra Biosciences Corp., Hudson, NH, USA), so that the final concentration of each compound was 1-fold nominal in the well.

[4] = Table 1, peak plasma concentration in men, free therapeutic Cmax
[5] = Table 2, highest plasma concentration in humans after the therapeutic dose
[6] = read-out: Area under the curve - 2D Mean
[7] = read-out: Peak amplitude - 2D Mean
[8] = read-out: Peak-to-peak interval - 2D Mean
[9] = concentration printed with the symbol

For `CC(=O)OCC[N+](C)(C)C` [Acetylcholine], the “Free Cmax” value [1, 4] is given as 1000 to 10000 nM, the “Free Cmax” value [1, 5] is given as 1000 to 10000 nM and the “effect on peak number / Ca2+ neuronal oscillations, in words” value [2] is given as “significantly reduced peak number”. The activation at 11.11 µM [2, 6] was 38.3%, the activation at 11.11 µM ([2]; read-out: Peak Number—2D Mean) was 2.4% and the activation at 11.11 µM [2, 7] was 11.4%. It also gave an activation at 11.11 µM ([2]; read-out: Peak width - 2D Mean) of 26.2%, an activation at 11.11 µM [2, 8] of 28% and an activation at 33.33 µM [2, 6] of 19.9%. It also gave an activation at 33.33 µM ([2]; read-out: Peak Number—2D Mean) of -31.5%, an activation at 33.33 µM [2, 7] of 2.3% and an activation at 33.33 µM ([2]; read-out: Peak width - 2D Mean) of 16.2%. The activation at 33.33 µM [2, 8] was -25.8%, the activation at 100 µM [2, 6] was -1.3% and the activation at 100 µM ([2]; read-out: Peak Number—2D Mean) was -47.2%. For the same molecule, the activation at 100 µM [2, 7] was -17%, the activation at 100 µM ([2]; read-out: Peak width - 2D Mean) was -3.8% and the activation at 100 µM [2, 8] was 11.3%. It also gave an activation at 300 µM [2, 6] of -6.1%, an activation at 300 µM ([2]; read-out: Peak Number—2D Mean) of -63.5% and an activation at 300 µM [2, 7] of -12.8%. For the same molecule, the activation at 300 µM ([2]; read-out: Peak width - 2D Mean) was 2.6%, the activation at 300 µM [2, 8] was 45.5% and the “Area under the curve - 3D Mean” value ([3]; 11.11 µM) was 109.9 % change from baseline. The “Peak Number—3D Mean” value ([3]; 11.11 µM) was −33.8 % change from baseline, the “Peak amplitude - 3D Mean” value ([3]; 11.11 µM) was 90.9 % change from baseline and the “Peak width - 3D Mean” value ([3]; 11.11 µM) was 4.2 % change from baseline. For the same molecule, the “Peak-to-peak interval - 3D Mean” value ([3]; 11.11 µM) was 89.6 % change from baseline, the “Area under the curve - 3D Mean” value ([3]; 33.33 µM) was 110.9 % change from baseline and the “Peak Number—3D Mean” value ([3]; 33.33 µM) was −51.6 * % change from baseline. The “Peak amplitude - 3D Mean” value ([3]; 33.33 µM) was 105.2 % change from baseline, the “Peak width - 3D Mean” value ([3]; 33.33 µM) was 0.4 % change from baseline and the “Peak-to-peak interval - 3D Mean” value ([3]; 33.33 µM) was 38.9 % change from baseline. The “Area under the curve - 3D Mean” value ([3]; 100 µM) was 97.3 % change from baseline, the “Peak Number—3D Mean” value ([3]; 100 µM) was −34.9 % change from baseline and the “Peak amplitude - 3D Mean” value ([3]; 100 µM) was 88.6 % change from baseline. For the same molecule, the “Peak width - 3D Mean” value ([3]; 100 µM) was 0.0 % change from baseline, the “Peak-to-peak interval - 3D Mean” value ([3]; 100 µM) was −5.5 % change from baseline and the “Area under the curve - 3D Mean” value ([3]; 300 µM) was 72.7 % change from baseline. For the same molecule, the “Peak Number—3D Mean” value ([3]; 300 µM) was −68.3 ** % change from baseline, the “Peak amplitude - 3D Mean” value ([3]; 300 µM) was 56.5 % change from baseline and the “Peak width - 3D Mean” value ([3]; 300 µM) was −12.2 % change from baseline. The “Peak-to-peak interval - 3D Mean” value ([3]; 300 µM) was 75.9 % change from baseline.

In the case of `N[C@@H](CCC(=O)O)C(=O)O` [Glutamate], the “Free Cmax” value [1, 4] is given as 1000 to 2000 nM, the “Free Cmax” value [1, 5] is given as 1000 to 2000 nM and the “Area under the curve - 2D Mean” value ([2]; 1.11 µM) is given as 5.8 % change from baseline. The “Peak Number—2D Mean” value ([2]; 1.11 µM) was −9.3 % change from baseline, the “Peak amplitude - 2D Mean” value ([2]; 1.11 µM) was −8.5 % change from baseline and the “Peak width - 2D Mean” value ([2]; 1.11 µM) was −3.4 % change from baseline. The “Peak-to-peak interval - 2D Mean” value ([2]; 1.11 µM) was −2.2 % change from baseline, the “Area under the curve - 2D Mean” value ([2]; 3.33 µM) was −13.0 % change from baseline and the “Peak Number—2D Mean” value ([2]; 3.33 µM) was −8.9 * % change from baseline. For the same molecule, the “Peak amplitude - 2D Mean” value ([2]; 3.33 µM) was −26.9 % change from baseline, the “Peak width - 2D Mean” value ([2]; 3.33 µM) was −5.2 % change from baseline and the “Peak-to-peak interval - 2D Mean” value ([2]; 3.33 µM) was −17.4 % change from baseline. For the same molecule, the “Area under the curve - 2D Mean” value ([2]; 10 µM) was −72.1 % change from baseline, the “Peak Number—2D Mean” value ([2]; 10 µM) was −60.3 * % change from baseline and the “Peak amplitude - 2D Mean” value ([2]; 10 µM) was −60.9 % change from baseline. For the same molecule, the “Peak width - 2D Mean” value ([2]; 10 µM) was −67.3 % change from baseline, the “Peak-to-peak interval - 2D Mean” value ([2]; 10 µM) was 96.3 % change from baseline and the “Area under the curve - 2D Mean” value ([2]; 30 µM) was −100.0 % change from baseline. The “Peak Number—2D Mean” value ([2]; 30 µM) was −100.0 * % change from baseline, the “Peak amplitude - 2D Mean” value ([2]; 30 µM) was −100.0 % change from baseline and the “Peak width - 2D Mean” value ([2]; 30 µM) was −100.0 % change from baseline. For the same molecule, the “Peak-to-peak interval - 2D Mean” value ([2]; 30 µM) was −100.0 % change from baseline, the “effect on peak number / Ca2+ neuronal oscillations, in words” value [2] was “significantly reduced peak number” and the “Ca²⁺ Transient Peak Number (2D), concentration in parentheses” value [2, 9] was 1 µM. The “Area under the curve - 3D Mean” value ([3]; 1.11 µM) was 116.3 % change from baseline, the “Peak Number—3D Mean” value ([3]; 1.11 µM) was −7.0 % change from baseline and the “Peak amplitude - 3D Mean” value ([3]; 1.11 µM) was 85.4 % change from baseline. The “Peak width - 3D Mean” value ([3]; 1.11 µM) was 12.5 % change from baseline, the “Peak-to-peak interval - 3D Mean” value ([3]; 1.11 µM) was 11.6 % change from baseline and the “Area under the curve - 3D Mean” value ([3]; 3.33 µM) was 129.9 % change from baseline. The “Peak Number—3D Mean” value ([3]; 3.33 µM) was 12.3 % change from baseline, the “Peak amplitude - 3D Mean” value ([3]; 3.33 µM) was 108.3 % change from baseline and the “Peak width - 3D Mean” value ([3]; 3.33 µM) was 8.6 % change from baseline. For the same molecule, the “Peak-to-peak interval - 3D Mean” value ([3]; 3.33 µM) was 3.1 % change from baseline, the “Area under the curve - 3D Mean” value ([3]; 10 µM) was 128.0 % change from baseline and the “Peak Number—3D Mean” value ([3]; 10 µM) was 20.0 % change from baseline. The “Peak amplitude - 3D Mean” value ([3]; 10 µM) was 103.9 % change from baseline, the “Peak width - 3D Mean” value ([3]; 10 µM) was 8.1 % change from baseline and the “Peak-to-peak interval - 3D Mean” value ([3]; 10 µM) was 0.4 % change from baseline. The “Area under the curve - 3D Mean” value ([3]; 30 µM) was 116.3 % change from baseline, the “Peak Number—3D Mean” value ([3]; 30 µM) was 8.4 % change from baseline and the “Peak amplitude - 3D Mean” value ([3]; 30 µM) was 107.0 % change from baseline. For the same molecule, the “Peak width - 3D Mean” value ([3]; 30 µM) was 2.8 % change from baseline, the “Peak-to-peak interval - 3D Mean” value ([3]; 30 µM) was −1.6 % change from baseline and the “effect on peak number of oscillations, in words” value ([3]; 3D-cultured) was “did not significantly change the peak number”. The “Ca²⁺ Transient Peak Number (3D), concentration in parentheses” value [3, 9] was 30 µM.
